Data as given in ChEMBL document CHEMBL1127696, “Non-peptide renin inhibitors containing 2-(((3-phenylpropyl)phosphoryl)oxy)alkanoic acid moieties as P2-P3 replacements” (J Med Chem, 1994).

Key:
Cathepsin D = molecular target: T1, Cathepsin D (Bos taurus, UniProt P80209); assay: In vitro inhibition of bovine cathepsin D.
T1 sequence (P80209 whole entry): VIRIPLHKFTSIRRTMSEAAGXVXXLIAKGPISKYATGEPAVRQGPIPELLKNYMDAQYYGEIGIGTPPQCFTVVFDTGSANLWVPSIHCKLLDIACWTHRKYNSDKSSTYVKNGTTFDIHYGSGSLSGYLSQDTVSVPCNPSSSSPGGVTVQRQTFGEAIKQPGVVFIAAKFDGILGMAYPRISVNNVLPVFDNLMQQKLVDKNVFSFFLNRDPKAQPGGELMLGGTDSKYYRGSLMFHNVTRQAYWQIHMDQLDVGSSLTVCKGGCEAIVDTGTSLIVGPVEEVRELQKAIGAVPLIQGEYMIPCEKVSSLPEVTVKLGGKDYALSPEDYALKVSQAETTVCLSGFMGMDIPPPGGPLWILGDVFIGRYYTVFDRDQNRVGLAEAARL

Renin = molecular target: T2, Renin (Homo sapiens, UniProt P00797); assay: In vitro inhibition of human renin.
T2 sequence (P00797 whole entry): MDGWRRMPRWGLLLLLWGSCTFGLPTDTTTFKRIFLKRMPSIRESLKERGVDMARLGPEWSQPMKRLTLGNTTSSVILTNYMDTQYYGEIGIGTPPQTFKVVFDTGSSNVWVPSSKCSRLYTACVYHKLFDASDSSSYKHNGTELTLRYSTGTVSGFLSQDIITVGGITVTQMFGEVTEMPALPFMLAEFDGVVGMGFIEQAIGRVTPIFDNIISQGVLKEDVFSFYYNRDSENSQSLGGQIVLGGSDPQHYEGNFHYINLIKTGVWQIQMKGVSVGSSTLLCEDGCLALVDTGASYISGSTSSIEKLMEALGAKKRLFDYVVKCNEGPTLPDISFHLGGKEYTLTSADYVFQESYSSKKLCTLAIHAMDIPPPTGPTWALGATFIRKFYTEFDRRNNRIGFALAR

Pepsin A = Pepsin A (Sus scrofa, UniProt P00791); assay: In vitro inhibition of porcine pepsin.
Pepsin A, sequence (P00791 whole entry): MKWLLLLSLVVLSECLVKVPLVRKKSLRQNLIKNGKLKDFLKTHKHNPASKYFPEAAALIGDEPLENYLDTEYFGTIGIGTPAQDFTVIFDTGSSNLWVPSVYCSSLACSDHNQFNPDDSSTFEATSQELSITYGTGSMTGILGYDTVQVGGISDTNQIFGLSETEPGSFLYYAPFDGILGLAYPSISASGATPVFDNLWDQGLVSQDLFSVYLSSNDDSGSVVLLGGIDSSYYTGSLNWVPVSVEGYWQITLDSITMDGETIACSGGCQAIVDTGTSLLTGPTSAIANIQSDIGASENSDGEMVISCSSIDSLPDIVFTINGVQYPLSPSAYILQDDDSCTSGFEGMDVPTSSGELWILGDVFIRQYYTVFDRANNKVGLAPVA

Row | IC50 (Cathepsin D) | IC50 (Renin) | IC50 (Pepsin A) | Structure (SMILES)
1 | > 10 µM | 0.016 µM | > 10 µM | CCCCNC(=O)[C@H](C)C[C@H](O)[C@H](CC1CCCCC1)NC(=O)[C@@H](C)OP(=O)(O)CCCc1ccccc1
2 | > 10 µM | 0.0038 µM | > 10 µM | CCCCNC(=O)[C@H](C)C[C@H](O)[C@H](CC1CCCCC1)NC(=O)[C@@H](CCC)OP(=O)(O)CCCc1ccccc1
3 | > 10 µM | 0.0025 µM | > 10 µM | CCCCNC(=O)[C@H](C)C[C@H](O)[C@H](CC1CCCCC1)NC(=O)[C@H](CCCC)OP(=O)(O)CCCc1ccccc1
4 | > 10 µM | 0.0175 µM | > 10 µM | CCCCNC(=O)[C@H](C)C[C@H](O)[C@H](CC1CCCCC1)NC(=O)[C@H](C)OP(=O)(O)CCCc1ccccc1
5 | > 10 µM | 0.046 µM | > 10 µM | CCCCNC(=O)[C@@H](C)C[C@@H](O)[C@@H](CC1CCCCC1)NC(=O)[C@H](CCCC)OP(=O)(O)CCc1ccccc1
6 | > 10 µM | 0.0048 µM | > 10 µM | CCCCNC(=O)[C@@H](C)C[C@@H](O)[C@@H](CC1CCCCC1)NC(=O)[C@H](CCCC)OP(=O)(O)CCCc1ccccc1
7 | > 10 µM | 0.0042 µM | > 10 µM | CCCCNC(=O)[C@H](C)C[C@H](O)[C@H](CC1CCCCC1)NC(=O)[C@H](CCC)OP(=O)(O)CCCc1ccccc1

Second part, the compound before the results:

Row | Structure (SMILES) | IC50 (Cathepsin D) | IC50 (Renin) | IC50 (Pepsin A)
8 | CCCC[C@H](OP(=O)(O)CCCc1ccccc1)C(=O)N[C@@H](CC1CCCCC1)[C@@H](O)C(O)CC(C)C (stereo partly drawn) | > 10 µM | 0.025 µM | > 10 µM
9 | CCCCNC(=O)[C@@H](C)C[C@@H](O)[C@@H](CC1CCCCC1)NC(=O)[C@H](CCCC)OP(=O)(O)CCCCc1ccccc1 | > 10 µM | 0.36 µM | > 10 µM
10 | CCCC[C@H](OP(=O)(O)CCCc1ccccc1)C(=O)N[C@@H](CC1CCCCC1)[C@@H](O)CCSc1ccccn1 | > 10 µM | 0.115 µM | > 10 µM
11 | CCCC[C@H](OP(=O)(O)CCCc1ccccc1)C(=O)N[C@@H](CC1CCCCC1)[C@@H](O)C(=O)OC(C)C | > 10 µM | 0.055 µM | > 10 µM
12 | CCCC[C@H](OP(=O)(O)CCCc1ccccc1)C(=O)N[C@@H](CC1CCCCC1)[C@@H](O)CC(=O)N[C@@H](C(=O)NCc1cnc(C)nc1N)[C@@H](C)CC | > 10 µM | 0.058 µM | > 10 µM
13 | CCCCNC(=O)[C@@H](C[C@H](O)[C@H](CC(C)C)NC(=O)[C@H](CCCC)OP(=O)(O)CCCc1ccccc1)C(C)C | 2.3 µM | 0.0028 µM | 10 µM
14 | CCCCNC(=O)[C@H](C)C[C@H](O)[C@H](CC1CCCCC1)NC(=O)[C@@H](CCCC)OP(=O)(CCCc1ccccc1)OCC (stereo in doubt; 7i) | > 10 µM | 0.0225 µM | > 10 µM
15 | CCCCNC(=O)[C@H](C)C[C@H](O)[C@H](CC1CCCCC1)NC(=O)[C@@H](CCCC)OP(=O)(CCCc1ccccc1)OCC (stereo in doubt; 7j) | > 10 µM | 0.35 µM | > 10 µM
16 | CCCCNC(=O)[C@H](C)C[C@H](O)[C@H](CC1CCCCC1)NC(=O)[C@H](CCCC)OP(=O)(CCCc1ccccc1)OCC (stereo in doubt; 7k) | 2.8 µM | 0.015 µM | > 10 µM
17 | CCCCNC(=O)[C@H](C)C[C@H](O)[C@H](CC1CCCCC1)NC(=O)[C@H](CCCC)OP(=O)(CCCc1ccccc1)OCC (stereo in doubt; 7l) | > 10 µM | 0.215 µM | > 10 µM
18 | CCC[C@@H](OP(=O)(CCCc1ccccc1)OCC)C(=O)N[C@@H](CC1CCCCC1)[C@@H](O)[C@@H](O)CC(C)C (stereo in doubt; 8f) | 2.15 µM | 0.0177 µM | > 10 µM
19 | CCC[C@@H](OP(=O)(CCCc1ccccc1)OCC)C(=O)N[C@@H](CC1CCCCC1)[C@@H](O)[C@@H](O)CC(C)C (stereo in doubt; 8g) | > 10 µM | 0.13 µM | > 10 µM
20 | CCC[C@@H](OP(=O)(CCCc1ccccc1)OCC)C(=O)N[C@@H](CC1CCCCC1)[C@@H](O)[C@@H](O)C1CC1 (stereo in doubt; 8h) | 4.15 µM | 0.02 µM | > 10 µM
21 | CCC[C@@H](OP(=O)(CCCc1ccccc1)OCC)C(=O)N[C@@H](CC1CCCCC1)[C@@H](O)[C@@H](O)C1CC1 (stereo in doubt; 8i) | > 10 µM | 0.155 µM | > 10 µM
